# Data taken from patent publication US8779161B2, “Asenapine maleate” (Dr. Reddy's Laboratories Limited, priority 2010, dated 2014).
# Key:
# [1] = Particle size distribution d(10), d(50), d(90); format: physicochemical
# Source text: For example, particle size distributions of asenapine maleate particles may be measured using microscopy or light scattering equipment, such as, for example, a Malvern Master Size 2000 from Malvern Instruments Limited, Malvern, Worcestershire, United Kingdom. The particle size distributions can be expressed, for example, in terms of d(90), d(50), and d(10) values, where the values (e.g., expressed in μm) are the maximum sizes for 90, 50, and 10 percent of the particles, respectively.
# Polymorphs are different solids sharing the same molecular formula, yet having distinct physical properties when compared to other polymorphs of the same formula. As used throughout the disclosure, the D(10), D(50), and D(90) values are useful ways for indicating a particle size distribution. D(90) refers to at least 90 volume percent of the particles having a size smaller than the said value. Likewise, D(10) refers to 10 volume percent of the particles having a size smaller than the said value. D(50) refers to 50 volume percent of the particles having a size smaller than the said value. Methods for determining D(10), D(50), and D(90) include laser diffraction, such as using equipment from Malvern Instruments Ltd. of Malvern, Worcestershire, United Kingdom. HPLC is High Pressure Liquid Chromatography.
# [2] = starting with the monoclinic form; WO 2006/106135 A1, Examples 9 and 10 therein; cited from earlier work
# [3] = Micronization of asenapine maleate monoclinic form: polymorphic form by PXRD after micronizing; format: physicochemical; conditions: Midas Micronizer 50, nitrogen carrier gas, 4-6 Kg/cm^2; compared with reference pattern of monoclinic polymorph
# Method: All PXRD data reported herein are obtained using a Bruker AXS D8 Advance Powder X-ray Diffractometer or a PANalytical X-ray Diffractometer, using copper Kα radiation. Generally, a diffraction angle (2θ) in powder X-ray diffractometry may have permissible variation in the range of ±0.2°. Although the intensities of peaks in the x-ray powder diffraction patterns of different batches of a compound may vary slightly, the peaks and the peak locations are characteristic for a specific polymorphic form. The relative intensities of the PXRD peaks can vary depending on the sample preparation technique, crystal size distribution, various filters used, the sample mounting procedure, and the particular instrument employed. Moreover, instrument variation and other factors can affect the 2-theta values. Therefore, the term “substantially” in the context of PXRD is meant to encompass that peak assignments can vary by plus or minus about 0.2° 2-theta.
# [4] = before micronization (as isolated)
# [5] = after micronization, Midas Micronizer 50, nitrogen 4-6 Kg/cm^2
Structure (SMILES),"particle size distribution d(90) [1, 4] [μm]","particle size distribution d(10) [1, 4] [μm]","particle size distribution d(50) [1, 4] [μm]","particle size distribution d(10) [1, 5] [μm]","particle size distribution d(50) [1, 5] [μm]","particle size distribution d(90) [1, 5] [μm]",polymorphic form obtained after micronization [2],PXRD Pattern after Micronizing [3]
"CN1C[C@H]2c3ccccc3Oc3ccc(Cl)cc3[C@@H]2C1.O=C(O)/C=C\C(=O)O [Example 26, Asenapine Maleate]",88,,,,,,,
"CN1C[C@H]2c3ccccc3Oc3ccc(Cl)cc3[C@@H]2C1.O=C(O)/C=C\C(=O)O [Example 15, Asenapine Maleate Monoclinic Form]",33.11,4.38,14.42,,,,,
"CN1C[C@H]2c3ccccc3Oc3ccc(Cl)cc3[C@@H]2C1.O=C(O)/C=C\C(=O)O [Example 11, Asenapine Maleate Monoclinic Form]",58.716,5.671,24.077,0.994,5.516,12.715,,
"CN1C[C@H]2c3ccccc3Oc3ccc(Cl)cc3[C@@H]2C1.O=C(O)/C=C\C(=O)O [form H, asenapine maleate]",,,,,,,"Either the monoclinic form, or the orthorhombic form or a mixture of polymorphs was obtained",
"CN1C[C@H]2c3ccccc3Oc3ccc(Cl)cc3[C@@H]2C1.O=C(O)/C=C\C(=O)O [Example 13, Asenapine Maleate]",80.698,6.269,35.229,0.887,4.632,10.678,,complies with reference pattern of monoclinic polymorph
